A short description of assay [1]: Inhibition of recombinant NDM1 (unknown origin) expressed in Escherichia coli (DE3) cells using FC5 as substrate by microplate reader assay.
A short description of assay [2]: Inhibition of recombinant VIM-5 (unknown origin) expressed in Escherichia coli (DE3) cells using FC5 as substrate by microplate reader assay.
Assay [3] in a line: Inhibition of recombinant his tagged VIM-2 (unknown origin) expressed in Escherichia coli (DE3) cells using FC5 as substrate by microplate reader assay.
The nature of assay [4]: Inhibition of recombinant his tagged IMP1 (unknown origin) expressed in Escherichia coli (DE3) cells using FC5 as substrate by microplate reader assay.
The nature of assay [5]: Inhibition of recombinant VIM-1 (unknown origin) expressed in Escherichia coli (DE3) cells using FC5 as substrate by microplate reader assay.

Broadly, the IC50 is the concentration at which inhibition is half-maximal.

As to `NCc1cccc(-c2cn(-c3ccccc3CP(=O)(O)O)nn2)c1`, the IC50 in assay [1] is over 100 µM; in assay [2], 1.4 µM; in assay [3], 4.92 µM; in assay [4], over 100 µM; in assay [5] it was 21.7 µM.
`O=C(O)c1cccc(-n2cc(-c3cccc(Cl)c3)nn2)c1C(=O)O`: the concentration for half-maximal inhibition (IC50) is over 100 µM in assay [1]; 32.2 µM in assay [2]; 20.5 µM in assay [3]; 2.84 µM in assay [4]; 15 µM in assay [5].
As for `Nc1ccc(-c2cn(-c3cccc(C(=O)O)c3C(=O)O)nn2)cc1`, the 50% inhibitory concentration (IC50) in assay [1] was over 100 µM; in assay [2], over 100 µM; in assay [3], 10.3 µM; in assay [4] it was 5.07 µM; in assay [5], over 100 µM.
Take `COc1cccc(-c2cn(-c3cccc(CP(=O)(O)O)c3)nn2)c1`: the IC50 was 60 µM in assay [1]; 0.093 µM in assay [2]; 0.83 µM in assay [3]; 12.2 µM in assay [4]; 8.74 µM in assay [5].
As to `O=P(O)(O)Cc1cccc(-n2cc(-c3cccc(F)c3)nn2)c1`, the IC50 in assay [1] was 34.7 µM; in assay [2], 0.08 µM; in assay [3] it was 0.97 µM; in assay [4] it was 6.74 µM; in assay [5], 6.67 µM.
Turning to `O=P(O)(O)Cc1cccc(-n2cc(-c3ccccc3F)nn2)c1`, the 50% inhibitory concentration (IC50) in assay [1] was 25.9 µM; in assay [2], 0.1 µM; in assay [3] it was 0.65 µM; in assay [4], 8.49 µM; in assay [5] it was 9.79 µM.
For `O=P(O)(O)Cc1cccc(-n2cc(CNc3ccccc3)nn2)c1` the same measures were 2.84 µM, 0.64 µM, 0.84 µM, 0.78 µM and 3.77 µM.
The matching figures for `O=C(O)c1cccc(-n2cc(-c3ccccc3)nn2)c1[N+](=O)[O-]`: over 100 µM, over 100 µM, over 100 µM, over 100 µM and over 100 µM.
For `O=C(NCc1cn(-c2cccc(CP(=O)(O)O)c2)nn1)C(F)(F)F` the same measures were 73.7 µM, 0.028 µM, 2.22 µM, 54.6 µM and 33.7 µM.
On to `Nc1cccc(-c2cn(-c3ccccc3CP(=O)(O)O)nn2)c1`, for which the IC50 in assay [1] is 94.9 µM; in assay [2] it was 0.38 µM; in assay [3] it was 1.11 µM; in assay [4], over 100 µM; in assay [5] it was 27.2 µM.
For the molecule `O=C(O)c1cccc(-n2cc(-c3ccccc3)nn2)c1`, the IC50 in assay [1], in assay [2], in assay [3], in assay [4] and in assay [5] was over 100 µM each time.
With `O=P(O)(O)Cc1cccc(-n2cc(-c3ccc(Cl)cc3)nn2)c1`, the IC50 in assay [1] was 40.2 µM; in assay [2] it was 0.18 µM; in assay [3], 0.44 µM; in assay [4], 8.34 µM; in assay [5] it was 7.12 µM.
On to `CCCCc1cn(-c2ccccc2CP(=O)(O)O)nn1`, for which the IC50 was over 100 µM in assay [1]; 32.2 µM in assay [2]; 5.34 µM in assay [3]; over 100 µM in assay [4]; 13.8 µM in assay [5].
Take `NCC(=O)Nc1cccc(-c2cn(-c3cccc(CP(=O)(O)O)c3)nn2)c1`: the IC50 in assay [1] came to 19.3 µM; in assay [2] it was 0.086 µM; in assay [3] it was 0.29 µM; in assay [4] it was 24.1 µM; in assay [5], 1.82 µM.
For `NCc1cn(-c2cccc(CP(=O)(O)O)c2)nn1` the same measures were over 100 µM, 14.5 µM, 2.69 µM, over 100 µM and 23.9 µM.
The matching figures for `O=C(NCc1cn(-c2ccc(CP(=O)(O)O)cc2)nn1)C(F)(F)F`: over 100 µM, 31.8 µM, 27.2 µM, over 100 µM and 27.9 µM.
The matching figures for `O=P(O)(O)Cc1ccc(-n2cc(CNc3ccccc3)nn2)cc1`: over 100 µM, 7.43 µM, 13.3 µM, over 100 µM and 26.7 µM.
As for `Nc1cccc(-n2cc(-c3cccc(B(O)O)c3)nn2)c1`, the 50% inhibitory concentration (IC50) is 50.4 µM in assay [1]; over 100 µM in assay [2]; 18.4 µM in assay [3]; over 100 µM in assay [4]; over 100 µM in assay [5].
For the molecule `O=C(O)c1cccc(-n2cc(CCO)nn2)c1C(=O)O`, the IC50 in assay [1] was over 100 µM; in assay [2], over 100 µM; in assay [3] it was over 100 µM; in assay [4], 40.7 µM; in assay [5] it was over 100 µM.
For the molecule `CC(C)(C)c1cn(-c2cccc(CP(=O)(O)O)c2)nn1`, the IC50 is 27.1 µM in assay [1]; 0.52 µM in assay [2]; 4.44 µM in assay [3]; 9.5 µM in assay [4]; 24.6 µM in assay [5].
For `O=P(O)(O)Cc1ccccc1-n1cc(-c2cccc(Cl)c2)nn1` the same measures were over 100 µM, 1.49 µM, 0.88 µM, 80.4 µM and 6.29 µM.
The matching figures for `O=P(O)(O)Cc1cccc(-n2cc(-c3ccc(F)cc3)nn2)c1`: 24.3 µM, 0.063 µM, 0.29 µM, 2.17 µM and 9.64 µM.
Consider `O=C(O)c1cn(-c2cccc(C(=O)O)c2C(=O)O)nn1`, for which the IC50 was over 100 µM in assay [1]; 93.6 µM in assay [2]; 55.3 µM in assay [3]; 29.2 µM in assay [4]; over 100 µM in assay [5].
For `OB(O)c1cccc(-c2cn(-c3ccccc3)nn2)c1`, the concentration for half-maximal inhibition (IC50) in assay [1], in assay [2], in assay [3], in assay [4] and in assay [5] was over 100 µM in each case.
Turning to `O=P(O)(O)Cc1ccc(-n2cc(-c3cccc(Cl)c3)nn2)cc1`, the concentration for half-maximal inhibition (IC50) in assay [1] is over 100 µM; in assay [2] it was 2.03 µM; in assay [3], 2.44 µM; in assay [4] it was over 100 µM; in assay [5], 8.99 µM.
On to `O=C(NCc1cccc(-c2cn(-c3cccc(CP(=O)(O)O)c3)nn2)c1)C(F)(F)F`, for which the IC50 is 58.4 µM in assay [1]; 0.11 µM in assay [2]; 1.98 µM in assay [3]; 6.54 µM in assay [4]; 12.3 µM in assay [5].
The matching figures for `OB(O)c1cccc(-c2cn(Cc3ccccc3)nn2)c1`: 36.3 µM, 14.6 µM, 64.2 µM, over 100 µM and over 100 µM.
The matching figures for `Nc1ccc(-c2cn(-c3cccc(CP(=O)(O)O)c3)nn2)cc1`: 15.1 µM, 0.28 µM, 0.17 µM, 3.24 µM and 5.84 µM.
The matching figures for `O=P(O)(O)Cc1cccc(-n2cc(-c3cccc(Cl)c3)nn2)c1`: over 100 µM, 0.031 µM, 0.24 µM, 7.17 µM and 6.85 µM.
For the molecule `CCCCc1cn(-c2cccc(CP(=O)(O)O)c2)nn1`, the IC50 in assay [1] is over 100 µM; in assay [2], 1.73 µM; in assay [3], 2.23 µM; in assay [4], 12.3 µM; in assay [5], 16.5 µM.
For `Nc1c(C(=O)O)cccc1-n1cc(-c2ccccc2)nn1` the same measures were over 100 µM, over 100 µM, over 100 µM, over 100 µM and over 100 µM.
Turning to `COc1ccc(-c2cn(-c3cccc(CP(=O)(O)O)c3)nn2)cc1`, the IC50 in assay [1] came out at 7.63 µM; in assay [2], 0.043 µM; in assay [3], 0.17 µM; in assay [4], 6.41 µM; in assay [5] it was 4.26 µM.
In the case of `NCCN[C@H]1CC[C@H](CC(=O)N[C@H]2Cc3cccc(C(=O)O)c3OB2O)CC1`, the IC50 in assay [1] turned out to be 0.18 µM; in assay [3], 0.004 µM; in assay [4], 13.2 µM; in assay [5] it was 0.041 µM.
For `O=C(CCn1cc(-c2cccc(B(O)O)c2)nn1)Nc1ccccc1`, the IC50 was over 100 µM in assay [1]; 6.36 µM in assay [2]; 34.3 µM in assay [3]; over 100 µM in assay [4]; over 100 µM in assay [5].
With `Cc1cccc(-c2cn(-c3ccccc3CP(=O)(O)O)nn2)c1`, the half-maximal inhibitory concentration (IC50) in assay [1] was over 100 µM; in assay [2], 1.89 µM; in assay [3], 3.37 µM; in assay [4], over 100 µM; in assay [5], 6.57 µM.
Regarding `NCc1cccc(-c2cn(-c3cccc(C(=O)O)c3C(=O)O)nn2)c1`, the half-maximal inhibitory concentration (IC50) in assay [1] was over 100 µM; in assay [2] it was over 100 µM; in assay [3], over 100 µM; in assay [4], 19.7 µM; in assay [5] it was over 100 µM.
As to `OB(O)c1cccc(-c2cn(-c3cccc(Cl)c3)nn2)c1`, the IC50 in assay [1] is 29.1 µM; in assay [2] it was 14.7 µM; in assay [3], 24.2 µM; in assay [4] it was over 100 µM; in assay [5], over 100 µM.
Regarding `NCCc1ccc(-c2cn(-c3cccc(C(=O)O)c3C(=O)O)nn2)cc1`, the IC50 was over 100 µM in assay [1]; over 100 µM in assay [2]; 67.5 µM in assay [3]; 1.8 µM in assay [4]; over 100 µM in assay [5].
Consider `CCCCc1cn(-c2cccc(C(=O)O)c2C(=O)O)nn1`, for which the 50% inhibitory concentration (IC50) was over 100 µM in assay [1]; over 100 µM in assay [2]; 77.2 µM in assay [3]; 8.94 µM in assay [4]; over 100 µM in assay [5].

The values are drawn from ChEMBL document CHEMBL5620345, “Metal binding pharmacophore click-derived discovery of new broad-spectrum metallo-β-lactamase inhibitors” (Eur J Med Chem, 2023).
